Assay results published in patent US20160281089A1, “PREVENTION OF VIRAL INFECTIVITY” (priority 2005, published 2016).

Experiments:
SFFV [1] = experiment: Prophylactic SFFV mouse model: virions pre-incubated with ODNs, injected i.p., then i.v. treatments; assay type: in vivo, mice
Experimental: Next we evaluated the prophylactic effect of ODN M on SFFV replication. For this we established 5 groups of 5 mice each. We pre-incubated SFFV with different ODNs or PBS for 2 hours and then injected the two together intraperitoneally at time 0. Then the mice were treated at 2, 4, and 24 hours post-infection by i.v. route. After 5 days, plasma from the mice was analyzed for viral RNA levels. […] A blood smear of the mice at day 64 post-infection was analyzed by Giemsa staining.
a. SFFV virions pre-treated with ODNs for 2 hours were injected i.p. into mice. Subsequent treatments were at 2, 4 and 24 h post infection. 5 groups of 5 mice each were used: negative control (1), infection with PBS (2), ODN M (3), or ODN A treatment (4) and mock-infection with ODN M treatment (5). Bleeding was performed five days post-infection for analysis of the viral RNA. The relative RNA levels standardized to group 2 of fully infected mice (bars) as well as RT-PCR products of the individual mice (gel analysis) are shown.

SFFV [2] = experiment: Treatment of 5-day-SFFV-infected mice, plasma SFFV RNA by real-time RT-PCR; assay type: in vivo
Text: SFFV replicates to high titers in mice, whereby the spleen is a virus-shedding reservoir. The virus stock is recovered from spleen homogenates after full-blown disease, at about day 20 post infection (pi). The clarified supernatant contains around 2×10^5 focus forming units (FFU) per mil. Infection was normally performed by intravenous (iv) injection of 4×10^3 SFFV. After 5 days the blood was recovered (100 microliters) for detection of the viral RNA. The equivalent of 0.05 microliters was enough for RNA detection by 40 cycles. One FFU corresponds to about 6×10^4 RNA copies or 3×10^4 virus particles.
A number of experiments were carried out to evaluate the effect of ODNs on the SFFV mouse model. We treated 5-day-SFFV-infected mice (thick arrow) with ODN M (triangle) and measured the plasma RNA levels 4 hours after the in vivo therapy by real-time RT-PCR (FIG. 10a.1). In a second experiment we isolated the plasma of 5-day-SFFV-infected mice and treated it ex vivo with ODN M for 4 hours (FIG. 10a.2). In the third experiment we isolated uninfected plasma, incubated it ex vivo with ODN M for 2 hours followed by the addition of SFFV for 4 more hours (FIG. 10a.3). Finally we incubated ODN M and SFFV together in normal mouse plasma ex vivo for 4 hours (FIG. 10a.4).
To elucidate further the antiviral effect of ODN M in vivo we set up different therapeutic regimens. We infected mice with SFFV and then treated them 5 days later twice at an interval of two hours with either ODN M (1 mg), asPPT, ODN A as control, or PBS. The RNA was extracted 4, 8 and 16 hours later for PCR analysis (FIG. 10b.1). The viral RNA decreased approximately 6-fold in the plasma and started to slowly increase again 16 hours post-therapy.
In the next study, we used a single injection as treatment protocol and assessed the antiviral effect of both ODN M and asPPT in a short time-course. Plasma was taken from mice at 0.5, 1, 2, and 4 hours after the single treatment (FIG. 10b.2). A strong decrease of the number of SFFV RNA copies was detectable 4 hours after treatment. […] We conclude from FIG. 10b.2 that a single injection is sufficient to decrease the number of RNA copies by approximately 6-fold 4 hours after the beginning of the therapy.
In order to test, whether the SFFV titer increases again after ODN M-treatment, and whether it remains sensitive for ODN M, we treated 5-day-SFFV-infected mice at 3 days intervals with a double dose within 2 hours intervals. Plasma was taken before and 4 hours after treatment and assessed for viral RNA levels (FIG. 10b.3). ODN M exerted a strong antiviral effect with a reduction of RNA copies of 6-fold at day 0 compared with the control. At day 3, the effect is even stronger with 8-fold decrease of the SFFV RNA level.
To obtain a more continuous effect of ODN M and asPPT on SFFV replication we treated the SFFV-infected mice every 12 hours (FIG. 10b.4). […] The lack of response is in accordance with our previous in vitro studies on the sequence-specificity of the ODN A.
PCR was performed as indicated. 1. Mice infected with 200 μl containing 4×10^3 FFU SFFV for 5 days were treated i.v. with ODN M (1 mg corresponding to about 20 μM ODN M in the blood of a mouse) or PBS 4 hours post-treatment, plasma (100 μl) was recovered and analyzed by real time RT-PCR for SFFV RNA. 2. Plasma from a 5-day-SFFV-infected mouse was recovered and 100 μl were treated with ODN M (20 μM) for 4 hours at 37° C. ex vivo and then analyzed. 3. Plasma from a mock-infected mouse was treated with ODN M (20 μM) for 2 hours and then treated with 4×10^3 FFU in 20 μl for 4 hours. 4. Plasma from mock-infected mice was incubated with a combination of SFFV (4×10^3 FFU in 20 μl) and ODN M (20 μM) for 4 hours and then analyzed. The RNA levels were determined by real-time RT-PCR in the four experimental scenarios and are shown to the right.
b. Effect of ODN treatment following SFFV-infection in vivo. […]

SFFV [3] = experiment: NIH 3T3 cells infected with ODN-pretreated SFFV; assay type: cell-based; details: three days post-infection, real-time RT-PCR
Text: As next step we investigated the antiviral effect of ODNs by testing pre-treated virions for residual infectivity as has been described before for HIV particles. SFFV particles were pretreated with ODN M or its variants and used to infect NIH 3T3 cells. After three days RNA was extracted from infected cells and from the supernatants and SFFV was quantified by real-time RT-PCR and analysis of amplification products (FIG. 9b).
b. NIH 3T3 cells were infected with SFFV pretreated with various ODNs. After three days the cells and supernatants were harvested and analyzed for SFFV RNA levels by quantitative real time RT-PCR (top) and RT-PCR (bottom) using GAPDH for comparison.

[4] = treated every 12 hours, up to 60 hours
[5] = SFFV pre-incubated 2 hours, i.p., i.v. treatments at 2, 4, 24 hours, day 5

Row | Sequence | viral infectivity in the body after pretreatment of the virus (SFFV [1]; pretreatment in a small test tube 1 to 4 hours, then infection of the mouse) | decrease of SFFV RNA levels (plateau) (SFFV [2]; [4]) | SFFV RNA in infected cells and supernatant (SFFV [3]) | decrease of plasma RNA levels compared to PBS control mice (SFFV [1]; [5]) [fold] | blood smear, Giemsa staining (SFFV [1]; day 64 post-infection) | reduction of RNA copies compared with the control (SFFV [2]; double dose within 2 hours, day 0, 4 hours after treatment) [fold] | decrease of the SFFV RNA level (SFFV [2]; double dose within 2 hours, day 3) [fold] | antiviral effect compared with asPPT (SFFV [2]; single injection, 2 hours after beginning of therapy) | decrease of number of SFFV RNA copies (SFFV [2]; single injection, 4 hours after beginning of therapy) | decrease of viral RNA in the plasma (SFFV [2]; treated twice at an interval of two hours, 1 mg, RNA at 4, 8, 16 hours) | reduction in RNA expression level (SFFV [1]; [5]) [%] | effect on viral replication (SFFV [2]; double dose at 3 days intervals) | effect on decrease of the RNA level (SFFV [2]; [4])
1 | CCCTTCCAGTCCCCCCTTTTCTTTT (chemistry not given here) [asPPT, single-stranded antisense PPT of HIV, lacks the passenger strand and the linker] | completely abrogate viral infectivity | ~5 fold | clearly less efficient |  |  |  |  |  |  |  |  |  | 
2 | TCTTTTTGGGGGGTTTGTTTGTTTTTTCTTTCATTCCCCCCTTTTTCT (chemistry not given here) [ODN M, 22-mer antisense and 22-mer second strand connected by T4, targeted to extended PPT of SFFV] |  | about 10 fold | suppressed viral replication | 5 | normal blood cell population | 6 | 8 | stronger than that of asPPT | approximately 6 fold | approximately 6 fold |  |  | 
3 | TTTTCTTTTGGGGGGTTTGGTTGGGTTTTCCCTTCCAGTCCCCCCTTTTCTTTT (phosphorothioate linkages, further chemistry not given here) [ODN A, 25 mer antisense and 25 mer passenger strand connected by T4, phosphorothioated at each end and in linker, targeted to extended PPT of HIV-1] |  |  | clearly less efficient |  |  |  |  |  |  |  | 30 | no effect on viral replication | no significant effect
